# Assay results from ChEMBL document CHEMBL3407464, “Novel 5-HT6 receptor antagonists/D2 receptor partial agonists targeting behavioral and psychological symptoms of dementia” (Eur J Med Chem, 2015).
# Key:
# [1] = molecular target: T1, 5-hydroxytryptamine receptor 6 (Homo sapiens, UniProt P50406); assay: Agonist activity at human 5-HT6 receptor expressed in CHOK1 cells assessed as calcium mobilization at 1 uM by radiometric and luminescence plate counting method; type: functional, cell-based; details: CHO-K1
# [2] = molecular target: hERG (KCNH2) (Homo sapiens, UniProt Q12809); assay: Inhibition of human ERG expressed in CHO cells assessed as reduction in channel current at holding potential of 0 mV at 1 uM by electrophysiological method; type: cell-based; details: CHO cells expressing human ERG
# [3] = molecular target: T2, Muscarinic acetylcholine receptor M1 (Homo sapiens) (UniProt P11229); assay: Inhibition of muscarinic M1 receptor (unknown origin) assessed as reduction in control ligand binding at 1 uM
# T2 sequence (whole entry): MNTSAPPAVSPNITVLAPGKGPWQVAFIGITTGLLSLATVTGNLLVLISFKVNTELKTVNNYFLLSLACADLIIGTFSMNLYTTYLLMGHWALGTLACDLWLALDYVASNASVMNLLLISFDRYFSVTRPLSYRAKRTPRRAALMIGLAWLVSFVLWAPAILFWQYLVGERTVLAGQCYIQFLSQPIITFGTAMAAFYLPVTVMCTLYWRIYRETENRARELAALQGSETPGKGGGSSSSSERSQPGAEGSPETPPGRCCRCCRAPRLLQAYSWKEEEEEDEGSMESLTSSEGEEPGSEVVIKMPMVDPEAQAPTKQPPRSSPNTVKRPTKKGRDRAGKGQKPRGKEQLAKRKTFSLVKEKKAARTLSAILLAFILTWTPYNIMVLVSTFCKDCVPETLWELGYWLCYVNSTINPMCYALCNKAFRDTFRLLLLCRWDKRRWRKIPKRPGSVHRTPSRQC
# [4] = molecular target: T3, D(2) dopamine receptor (Homo sapiens, UniProt P14416); assay: Agonist activity at human dopamine D2 receptor expressed in CHOK1 cells assessed as calcium mobilization at 1 uM by radiometric and luminescence plate counting method; type: functional, cell-based; details: CHO-K1
# [5] = molecular target: T3, D(2) dopamine receptor; assay: Antagonist activity at human dopamine D2 receptor expressed in CHOK1 cells assessed as inhibition of apomorphine-induced calcium mobilization at 1 uM by radiometric and luminescence plate counting method; type: functional, cell-based; details: CHO-K1
# [6] = test system: Rattus norvegicus; assay: Anxiolytic activity in intraperitoneally dosed 3-months old Wistar rat by Vogel's conflict drinking test; type: functional; details: ip, read-out: MED
# [7] = test system: Rattus norvegicus; assay: Anti-depressant-like activity in intraperitoneally dosed 3-months old Wistar rat by Porsolt's forced swim test; type: functional; details: ip, read-out: MED
# [8] = Aqueous solubility in simulated intestinal fluid at 2 x 10^-4 M; type: physicochemical
# [9] = molecular target: 5-hydroxytryptamine receptor 2C (Homo sapiens, UniProt P28335); assay: biochemical
# [10] = test system: Rattus norvegicus; assay: Anxiolytic activity in intraperitoneally dosed 3-months old Wistar rat by open-field test; type: functional; details: ip, read-out: MED
# [11] = test system: Rattus norvegicus; assay: Induction of reinforcement of lever pressing in intraperitoneally dosed Wistar rat in absence of sweet reward; type: organism-based; details: in vivo, ip
# [12] = molecular target: T1, 5-hydroxytryptamine receptor 6; assay: Antagonist activity against human recombinant 5-HT6 receptor expressed in CHOK1 cells assessed as reduction in serotonin-induced increase in intracellular Ca2+ levels by aequorin based radiometric and luminescence plate counting method; type: functional, cell-based; details: CHO-K1
# [13] = molecular target: D(4) dopamine receptor (Homo sapiens) (UniProt P21917); assay: Displacement of [3H]methylspiperone from human dopamine D4 receptor expressed in CHO cells at 1 uM; type: cell-based
# [14] = molecular target: Alpha-2C adrenergic receptor (Homo sapiens, UniProt P18825); assay: biochemical
# [15] = molecular target: T4, D(3) dopamine receptor (Homo sapiens, UniProt P35462); assay: Displacement of [3H]methylspiperone from human dopamine D3 receptor expressed in CHO cells; type: cell-based
# [16] = test system: Rattus norvegicus; assay: Procognitive effect in intraperitoneally dosed 3-months old Wistar rat assessed as extinction of non-reinforced responding for sweet reward; type: functional; details: ip, read-out: MED
# [17] = molecular target: T5, Histamine H1 receptor (Homo sapiens, UniProt P35367); assay: Displacement of [3H]pyrilamine from human histamine H1 receptor expressed in HEK-293 cells at 1 uM; type: cell-based; details: HEK293
# [18] = molecular target: T4, D(3) dopamine receptor; assay: Agonist activity at human recombinant dopmaine D3 receptor expressed in CHOK1 cells assessed as effect on cAMP levels; type: functional, cell-based, CHO-K1
# [19] = Permeability across apical to basolateral side in human Caco2 cells at 1 x 10^-5 M; type: ADME, cell-based; details: Caco-2, read-out: permeability
# [20] = molecular target: T6, Sodium-dependent serotonin transporter (Homo sapiens, UniProt P31645); assay: Displacement of [3H]imipramine from human SERT expressed in CHO cells at 1 uM; type: cell-based
# Target sequence in this assay (P31645 whole entry, looked up): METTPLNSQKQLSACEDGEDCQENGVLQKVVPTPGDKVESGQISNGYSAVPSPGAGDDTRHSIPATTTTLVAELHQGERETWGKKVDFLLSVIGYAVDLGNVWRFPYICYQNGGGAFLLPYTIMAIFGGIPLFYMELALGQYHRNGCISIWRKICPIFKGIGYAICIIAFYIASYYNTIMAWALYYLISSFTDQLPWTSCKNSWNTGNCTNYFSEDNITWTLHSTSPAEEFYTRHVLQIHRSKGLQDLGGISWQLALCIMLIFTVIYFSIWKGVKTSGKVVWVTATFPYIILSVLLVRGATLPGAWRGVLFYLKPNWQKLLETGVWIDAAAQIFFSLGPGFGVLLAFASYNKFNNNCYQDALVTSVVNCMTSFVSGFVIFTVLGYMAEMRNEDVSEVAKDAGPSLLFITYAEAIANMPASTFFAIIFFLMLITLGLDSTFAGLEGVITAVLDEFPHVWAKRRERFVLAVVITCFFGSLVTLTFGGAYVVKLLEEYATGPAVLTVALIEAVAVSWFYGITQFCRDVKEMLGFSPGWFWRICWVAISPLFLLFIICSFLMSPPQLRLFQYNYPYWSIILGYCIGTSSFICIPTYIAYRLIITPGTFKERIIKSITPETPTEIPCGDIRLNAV
# [21] = Permeability across basolateral to apical side in human Caco2 cells at 1 x 10^-5 M; type: ADME, cell-based; details: Caco-2, read-out: permeability
# [22] = molecular target: T7, 5-hydroxytryptamine receptor 2A (Homo sapiens, UniProt P28223); details: HEK293, 1 uM
# [23] = Intrinsic clearance in human liver microsomes at 1 x 10^-7 M; type: ADME; details: read-out: CLH
# [24] = Aqueous solubility in simulated gastric fluid at 2 x 10^-4 M; type: physicochemical
# [25] = Aqueous solubility in PBS buffer at pH 7.4 at 2 x 10^-4 M; type: physicochemical
# [26] = molecular target: 5-hydroxytryptamine receptor 1A (Homo sapiens) (UniProt P08908); details: HEK293, 1 uM
# [27] = molecular target: T7, 5-hydroxytryptamine receptor 2A; assay: Displacement of [3H]ketanserin from human 5-HT2A receptor expressed in HEK-293 cells; type: cell-based, HEK293
# [28] = molecular target: T4, D(3) dopamine receptor; details: CHO, 1 uM
# [29] = molecular target: T2, Muscarinic acetylcholine receptor M1 (Homo sapiens); assay: Displacement of [3H]pirenzepine from human muscarinic M1 receptor expressed in CHO cells at 1 uM; type: cell-based
# [30] = molecular target: T5, Histamine H1 receptor; assay: biochemical; type: cell-based, HEK293
# [31] = molecular target: Alpha-1A adrenergic receptor (Homo sapiens) (UniProt P35348); details: CHO, 1 uM
# [32] = molecular target: T1, 5-hydroxytryptamine receptor 6; assay: biochemical
# [33] = molecular target: T8, 5-hydroxytryptamine receptor 7 (Homo sapiens, UniProt P34969); assay: biochemical
# [34] = Metabolic stability in human liver microsomes assessed as compound remaining after 60 mins at 1 x 10^-7 M (reference value: 100%); type: ADME; details: read-out: Stability
# [35] = test system: Rattus norvegicus; assay: Anxiolytic activity in intraperitoneally dosed >18-months old Wistar rat by open-field test; type: functional; details: ip, read-out: MED
# [36] = molecular target: Alpha-2C adrenergic receptor (Homo sapiens) (UniProt P18825); assay: Displacement of [3H]RX-821002 from human adrenergic alpha2C receptor expressed in CHO cells at 1 uM; type: cell-based
# [37] = molecular target: 5-hydroxytryptamine receptor 1A (Homo sapiens, UniProt P08908); assay: biochemical
# [38] = molecular target: Alpha-1A adrenergic receptor (Homo sapiens, UniProt P35348); assay: biochemical
# [39] = Half life in human liver microsomes at 1 x 10^-7 M; type: ADME
# [40] = molecular target: Voltage-gated inwardly rectifying potassium channel KCNH2 (Homo sapiens, UniProt Q12809)
# [41] = test system: Rattus norvegicus; assay: Anti-depressant-like activity in intraperitoneally dosed 3-months old Wistar rat assessed as increase in saccharin self-administration; type: functional; details: ip, read-out: MED
# [42] = molecular target: T8, 5-hydroxytryptamine receptor 7; assay: Displacement of [3H]LSD from human 5-HT7 receptor expressed in CHO cells at 1 uM; type: cell-based
# [43] = test system: Rattus norvegicus; assay: Anti-depressant-like activity in intraperitoneally dosed >18-months old Wistar rat by Porsolt's forced swim test; type: functional; details: ip, read-out: MED
# [44] = Protein binding in human plasma 1 x 10^-5 M; type: ADME, cell-free; details: read-out: PPB
# [45] = Metabolic stability in human liver microsomes assessed as compound remaining after 45 mins at 1 x 10^-7 M (reference value: 100%); type: ADME; details: read-out: Stability
# [46] = molecular target: T3, D(2) dopamine receptor; assay: Agonist activity at human recombinant dopmaine D2L receptor expressed in CHOK1 cells assessed as intracellular Ca2+ levels by aequorin based radiometric and luminescence plate counting method; type: functional, cell-based, CHO-K1
# [47] = molecular target: D(4) dopamine receptor (Homo sapiens, UniProt P21917); assay: Displacement of [3H]methylspiperone from human dopamine D4 receptor expressed in CHO cells; type: cell-based
# [48] = molecular target: 5-hydroxytryptamine receptor 2C (Homo sapiens) (UniProt P28335); assay: Displacement of [3H]mesulergine from human 5-HT2C receptor expressed in HEK-293 cells at 1 uM; type: cell-based; details: HEK293
# [49] = molecular target: T3, D(2) dopamine receptor; assay: biochemical
# [50] = Metabolic stability in human liver microsomes assessed as compound remaining after 15 mins at 1 x 10^-7 M (reference value: 100%); type: ADME; details: read-out: Stability
# [51] = molecular target: T6, Sodium-dependent serotonin transporter; assay: biochemical
# Target sequence in this assay (P31645 whole entry): as the sequence (P31645 whole entry, looked up) above
# [52] = molecular target: T3, D(2) dopamine receptor; assay: biochemical; remark: listed apart in the source
# [53] = molecular target: Muscarinic acetylcholine receptor M1 (Homo sapiens, UniProt P11229); assay: biochemical; type: cell-based, CHO
# [54] = molecular target: D(1A) dopamine receptor (Homo sapiens, UniProt P21728); assay: biochemical
# [55] = Metabolic stability in human liver microsomes assessed as compound remaining after 30 mins at 1 x 10^-7 M (reference value: 100%); type: ADME; details: read-out: Stability
# T3 sequence (P14416 whole entry): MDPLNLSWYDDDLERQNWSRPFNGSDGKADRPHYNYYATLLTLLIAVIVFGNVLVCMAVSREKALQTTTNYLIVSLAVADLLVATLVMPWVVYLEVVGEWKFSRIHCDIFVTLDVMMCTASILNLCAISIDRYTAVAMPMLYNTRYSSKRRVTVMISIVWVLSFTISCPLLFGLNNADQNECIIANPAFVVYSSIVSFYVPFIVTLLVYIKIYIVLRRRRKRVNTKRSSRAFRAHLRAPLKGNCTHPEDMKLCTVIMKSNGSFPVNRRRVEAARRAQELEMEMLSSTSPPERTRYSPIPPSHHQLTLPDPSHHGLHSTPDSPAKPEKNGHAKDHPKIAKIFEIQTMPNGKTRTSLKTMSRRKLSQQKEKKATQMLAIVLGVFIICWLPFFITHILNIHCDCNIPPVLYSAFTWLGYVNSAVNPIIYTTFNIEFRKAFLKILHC
# T4 sequence (P35462 whole entry): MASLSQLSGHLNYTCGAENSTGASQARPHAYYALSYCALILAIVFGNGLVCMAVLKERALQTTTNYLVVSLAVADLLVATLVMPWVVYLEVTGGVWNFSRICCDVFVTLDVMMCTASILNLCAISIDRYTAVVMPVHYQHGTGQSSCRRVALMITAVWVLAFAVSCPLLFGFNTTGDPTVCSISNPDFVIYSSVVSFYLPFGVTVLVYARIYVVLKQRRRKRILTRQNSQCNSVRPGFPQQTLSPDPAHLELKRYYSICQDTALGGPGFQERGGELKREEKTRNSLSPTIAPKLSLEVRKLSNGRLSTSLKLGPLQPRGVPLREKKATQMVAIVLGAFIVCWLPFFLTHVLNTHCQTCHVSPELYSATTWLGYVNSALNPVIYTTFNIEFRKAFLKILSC
# T1 sequence (P50406 whole entry): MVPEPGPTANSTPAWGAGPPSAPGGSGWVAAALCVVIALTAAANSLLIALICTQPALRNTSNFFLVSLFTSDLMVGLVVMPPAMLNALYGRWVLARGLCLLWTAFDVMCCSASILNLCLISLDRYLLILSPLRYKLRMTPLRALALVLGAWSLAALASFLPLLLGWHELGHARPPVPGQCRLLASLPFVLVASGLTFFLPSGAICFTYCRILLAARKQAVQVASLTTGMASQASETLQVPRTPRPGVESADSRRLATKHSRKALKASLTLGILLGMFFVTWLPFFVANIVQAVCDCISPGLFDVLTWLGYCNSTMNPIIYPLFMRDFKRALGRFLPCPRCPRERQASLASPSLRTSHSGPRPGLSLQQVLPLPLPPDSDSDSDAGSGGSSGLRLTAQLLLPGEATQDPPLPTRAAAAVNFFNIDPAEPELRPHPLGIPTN
# T8 sequence (P34969 whole entry): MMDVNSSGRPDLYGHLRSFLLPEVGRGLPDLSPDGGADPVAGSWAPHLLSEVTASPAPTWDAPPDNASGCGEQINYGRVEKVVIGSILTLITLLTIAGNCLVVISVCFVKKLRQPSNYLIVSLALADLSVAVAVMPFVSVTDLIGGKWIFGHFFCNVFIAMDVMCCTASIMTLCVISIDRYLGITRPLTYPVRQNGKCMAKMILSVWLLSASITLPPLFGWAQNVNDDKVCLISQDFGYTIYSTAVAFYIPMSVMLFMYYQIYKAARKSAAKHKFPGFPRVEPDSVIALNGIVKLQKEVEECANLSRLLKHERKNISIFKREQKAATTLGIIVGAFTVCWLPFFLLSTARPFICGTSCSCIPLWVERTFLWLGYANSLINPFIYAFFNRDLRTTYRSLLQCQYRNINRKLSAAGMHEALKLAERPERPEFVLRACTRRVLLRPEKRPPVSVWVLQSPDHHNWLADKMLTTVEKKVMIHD
# T5 sequence (P35367 whole entry): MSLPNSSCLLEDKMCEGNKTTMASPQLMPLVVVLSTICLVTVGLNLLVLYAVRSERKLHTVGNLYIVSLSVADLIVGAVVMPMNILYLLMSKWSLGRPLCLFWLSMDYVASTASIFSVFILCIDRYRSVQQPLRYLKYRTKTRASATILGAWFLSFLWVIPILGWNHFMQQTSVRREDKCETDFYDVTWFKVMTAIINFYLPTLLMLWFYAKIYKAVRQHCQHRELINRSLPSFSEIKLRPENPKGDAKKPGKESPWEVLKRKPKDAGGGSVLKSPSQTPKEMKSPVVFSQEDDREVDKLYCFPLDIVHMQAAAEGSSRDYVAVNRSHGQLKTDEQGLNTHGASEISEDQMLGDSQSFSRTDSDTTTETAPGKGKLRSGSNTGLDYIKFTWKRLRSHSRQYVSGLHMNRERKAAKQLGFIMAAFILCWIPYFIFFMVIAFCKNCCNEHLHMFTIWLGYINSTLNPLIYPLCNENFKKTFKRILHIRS
# T7 sequence (P28223 whole entry): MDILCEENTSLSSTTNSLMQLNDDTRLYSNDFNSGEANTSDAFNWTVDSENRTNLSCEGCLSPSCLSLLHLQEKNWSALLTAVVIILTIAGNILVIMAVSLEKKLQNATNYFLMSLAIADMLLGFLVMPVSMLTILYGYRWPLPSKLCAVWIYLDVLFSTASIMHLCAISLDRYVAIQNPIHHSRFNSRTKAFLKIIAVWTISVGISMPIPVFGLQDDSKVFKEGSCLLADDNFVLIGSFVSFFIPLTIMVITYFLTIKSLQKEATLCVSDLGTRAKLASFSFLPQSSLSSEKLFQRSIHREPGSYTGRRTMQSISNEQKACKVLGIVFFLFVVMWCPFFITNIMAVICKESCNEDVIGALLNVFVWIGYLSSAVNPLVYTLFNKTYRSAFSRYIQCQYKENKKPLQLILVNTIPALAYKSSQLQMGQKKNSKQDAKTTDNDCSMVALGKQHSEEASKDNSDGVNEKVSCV
# Alpha-1A adrenergic receptor (Homo sapiens), sequence (P35348 whole entry): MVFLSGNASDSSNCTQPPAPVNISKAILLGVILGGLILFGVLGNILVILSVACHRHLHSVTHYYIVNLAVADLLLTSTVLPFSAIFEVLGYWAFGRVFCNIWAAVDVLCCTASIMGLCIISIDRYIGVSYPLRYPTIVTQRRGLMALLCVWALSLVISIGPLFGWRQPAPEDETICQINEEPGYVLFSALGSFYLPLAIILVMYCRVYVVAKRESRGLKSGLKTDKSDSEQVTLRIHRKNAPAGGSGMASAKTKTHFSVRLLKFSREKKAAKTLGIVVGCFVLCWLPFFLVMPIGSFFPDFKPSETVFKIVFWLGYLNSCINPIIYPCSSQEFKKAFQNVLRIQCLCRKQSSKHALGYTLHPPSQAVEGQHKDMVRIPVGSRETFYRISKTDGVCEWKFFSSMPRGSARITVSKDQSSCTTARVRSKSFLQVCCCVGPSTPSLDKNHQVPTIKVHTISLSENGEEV
# Alpha-1A adrenergic receptor, sequence (P35348 whole entry): as above
# 5-hydroxytryptamine receptor 1A (Homo sapiens), sequence (P08908 whole entry): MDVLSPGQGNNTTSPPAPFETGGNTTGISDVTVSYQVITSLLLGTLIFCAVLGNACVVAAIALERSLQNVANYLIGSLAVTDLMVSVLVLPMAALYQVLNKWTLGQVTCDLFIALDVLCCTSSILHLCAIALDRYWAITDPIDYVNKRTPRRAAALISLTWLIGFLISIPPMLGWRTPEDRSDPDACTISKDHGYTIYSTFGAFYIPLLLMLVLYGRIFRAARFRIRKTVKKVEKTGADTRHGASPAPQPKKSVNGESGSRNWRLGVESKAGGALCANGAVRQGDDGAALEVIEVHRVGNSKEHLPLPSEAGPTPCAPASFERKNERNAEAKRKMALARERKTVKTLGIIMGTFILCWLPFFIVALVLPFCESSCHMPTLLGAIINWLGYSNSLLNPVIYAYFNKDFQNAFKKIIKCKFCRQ
# 5-hydroxytryptamine receptor 1A, sequence (P08908 whole entry): as above
smiles,measurement,setting,value
O=C1CCc2ccc(OCCCCN3CCN(c4cccc5c4ccn5Cc4cccc(Cl)c4)CC3)cc2N1,inhibition,[1],0%
same,inhibition at 1 µM,[2],9%
same,inhibition,[3],78%
same,inhibition,[4],37%
same,inhibition,[5],99%
COc1ccc(NS(=O)(=O)c2sc3ccc(Cl)cc3c2C)cc1N1CCNCC1,minimal effective dose,[6],3 mg/kg
same,minimal effective dose,[7],10 mg/kg
NC(=O)c1ccccc1OCCCN1CCN(c2cccc3c2ccn3S(=O)(=O)c2ccccc2)CC1,solubility at 200 µM,[8],97.3 µM
same,Ki,[9],> 1000 nM
same,minimal effective dose,[10],1 mg/kg
same,Activity,[11],Non-toxic
same,Kb,[12],1.8 nM
same,inhibition,[13],> 90%
same,Ki,[14],190 nM
same,Ki,[15],0.1 nM
same,minimal effective dose,[16],3 mg/kg
same,inhibition,[17],> 50%
same,EC50,[18],> 1000 nM
same,minimal effective dose,[6],1 mg/kg
same,Papp A→B at 10 µM,[19],0.7 ×10⁻⁶ cm/s
same,inhibition,[20],< 40%
same,Papp B→A at 10 µM,[21],0.3 ×10⁻⁶ cm/s
same,inhibition,[22],> 90%
same,microsomal CLint at 0.1 µM,[23],< 116 µL/min/mg
same,solubility at 200 µM,[24],200 µM
same,solubility at 200 µM,[25],7 µM
same,inhibition,[26],> 90%
same,Ki,[27],29 nM
same,minimal effective dose,[7],1 mg/kg
same,inhibition,[28],> 90%
same,inhibition,[29],< 40%
same,Ki,[30],160 nM
same,inhibition,[31],> 50%
same,Ki,[32],1 nM
same,Ki,[33],180 nM
same,"remaining at 1 h, 0.1 µM",[34],57.9%
same,minimal effective dose,[35],3 mg/kg
same,inhibition,[36],> 50%
same,Ki,[37],6.7 nM
same,Ki,[38],16.9 nM
same,half-life at 0.1 µM,[39],> 1 h
same,IC50,[40],6200 nM
same,minimal effective dose,[41],1 mg/kg
same,inhibition,[42],> 50%
same,minimal effective dose,[43],1 mg/kg
same,fraction unbound at 10 µM,[44],< 0.01
same,"remaining at 0.75 h, 0.1 µM",[45],68%
same,EC50,[46],54 nM
same,Ki,[47],7.1 nM
same,inhibition,[48],< 40%
same,Ki,[49],6.3 nM
same,"remaining at 0.25 h, 0.1 µM",[50],90.6%
same,Ki,[51],> 1000 nM
same,Ki,[52],6.3 nM
same,Ki,[53],> 1000 nM
same,Ki,[54],> 1000 nM
same,"remaining at 0.5 h, 0.1 µM",[55],79.3%
